Our source for the IC50 values is US20260167656A1, “PHOSPHORAMIDATE COMPOUNDS AND USES THEREOF” (ALLORION THERAPEUTICS INC, priority 2022, published 2026).

Test [1] has as its system non-small cell lung cancer cell line H460. Nature of the test: In vitro human cancer cell line cytotoxicity (proliferation) assay in H460, CellTiter-Glo, 72 hours. It is filed as cell-based. Conditions: H460 cells, DMSO condition (no AKR1C3 inhibitor), read-out: CTG H460: Avg IC50 (nM) [Assay Condition: DMSO]. The gist of the method:
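IC50s in nM come from CellTiter-Glo viability read after 72 h of compound exposure. Compounds went in from 10 mM DMSO stocks onto H460 cells, which had been plated at 3×10^3 per well and grown 24 h beforehand at 37 °C, 5% CO2.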

The test system is the same in test [2]. Nature of the test: H460 proliferation assay in the presence of 3 uM ASP9521 (AKR1C3 specific inhibitor). It is filed as cell-based, human. The conditions noted are these: H460 cells, CellTiter-Glo, 72 hours, in the presence of 3 uM ASP9521 added 4 hours prior to compounds; read-out: CTG H460: Avg IC50 (nM) [Assay Condition: ASP9521]. In a few lines: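 AKR1C3 blocked with 3 uM ASP9521 given 4 h ahead of test compounds. H460 cells, plated 24 h earlier, were then treated for 72 h at 37 °C in 5% CO2. CellTiter-Glo luminescence gave viability.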
In general terms: Cellular ATP, detected with luciferase, serves as a proxy for viable cell number.

Usually IC50 stands for the concentration at which inhibition is half-maximal. Regarding `O=C(c1cccc(Oc2c([N+](=O)[O-])ccc3c2CCC3OP(=O)(N2CC2)N2CC2)c1)N1CCCCC1` (stereo not drawn) [Example 236], the IC50 was below 10 nM in test [1] and 715 nM in test [2].
For `O=[N+]([O-])c1ccc2c(c1Oc1ccc(-n3cc(F)cn3)cc1)CCC2OP(=O)(N1CC1)N1CC1` (racemic) [Example 419], in that order: below 10 nM and 1180 nM.
With `Cc1noc(-c2cc(Oc3c([N+](=O)[O-])ccc4c3CC[C@@H]4OP(=O)(N3CC3)N3CC3)ccc2F)n1` [Example 326], the IC50 is below 10 nM in test [1] (Homo sapiens, NCI-H460, 72 h) and 1270 nM in test [2].
In the same order, the values of `O=[N+]([O-])c1ccc2c(c1Oc1ccc(-c3ccc(F)cc3)c(F)c1)CCC2OP(=O)(N1CC1)N1CC1` (single isomer, unassigned) [Example 27] are below 10 nM and 1170 nM.
Turning to `C[C@H]1CN1P(=O)(OC(c1ccc([N+](=O)[O-])c(Oc2cccc(C(=O)N(C)C)c2)c1)C(F)(F)F)N1C[C@@H]1C` (stereo partly drawn) [Example 227], the IC50 in test [1] (Homo sapiens, NCI-H460, 72 h) is 10 to 50 nM; in test [2], 9760 nM.
As for `O=[N+]([O-])c1ccc2c(c1Oc1ccc(-c3ccc(F)cn3)cc1)CCC2OP(=O)(N1CC1)N1CC1` (racemic) [Example 276], the IC50 in test [1] was below 10 nM; in test [2], 1340 nM.
Turning to `Cc1ccnn1-c1cc(Oc2c([N+](=O)[O-])ccc3c2CC[C@@H]3OP(=O)(N2CC2)N2CC2)ccc1F` [Example 433], the IC50 in test [1] (Homo sapiens, NCI-H460, 72 h) is below 10 nM; in test [2], 2590 nM.
In the case of `O=[N+]([O-])c1ccc2c(c1Oc1ccc(F)c(OC(F)F)c1)CCC2OP(=O)(N1CC1)N1CC1` (racemic) [Example 475], the IC50 in test [1] is below 10 nM; in test [2] it was 509 nM.
Take `O=C(c1ccc(Oc2cc3c(cc2[N+](=O)[O-])CCC3OP(=O)(N2CC2)N2CC2)cc1)N1CCOCC1` (stereo not drawn) [Example 161]: the IC50 in test [1] is below 10 nM; in test [2] it was 339 nM.
Turning to `CC(OP(=O)(N1C[C@@H]1C)N1C[C@@H]1C)c1ccc([N+](=O)[O-])c(Oc2ccc(-c3ccccc3)cc2)c1` (stereo partly drawn) [Example 217], the IC50 is below 10 nM in test [1] (Homo sapiens, NCI-H460, 72 h) and 1600 nM in test [2].
On to `O=[N+]([O-])c1ccc2c(c1Oc1cncc(-c3ccccc3)c1)CCC2OP(=O)(N1CC1)N1CC1` (stereo not drawn) [Example 311], for which the IC50 in test [1] (Homo sapiens, NCI-H460, 72 h) was below 10 nM; in test [2], 485 nM.
For `O=[N+]([O-])c1ccc2c(c1Oc1cccc(-n3cccn3)c1)CCC2OP(=O)(N1CC1)N1CC1` (stereo not drawn) [Example 114], the IC50 is below 10 nM in test [1] and 1280 nM in test [2].
As for `Cn1ccc2ccc(Oc3cc4c(cc3[N+](=O)[O-])CCC4OP(=O)(N3CC3)N3CC3)cc2c1=O` (stereo not drawn) [Example 156], the IC50 was 10 to 50 nM in test [1] (Homo sapiens, NCI-H460, 72 h) and 895 nM in test [2].
For `CNC(=O)c1ccc(Oc2cc3c(cc2[N+](=O)[O-])CCC3OP(=O)(N2CC2)N2CC2)cc1` (single isomer, unassigned) [Example 150], the IC50 in test [1] (Homo sapiens, NCI-H460, 72 h) was below 10 nM; in test [2], 297 nM.
`O=[N+]([O-])c1ccc2c(c1Oc1ccc(-c3ncccn3)cc1)CC[C@H]2OP(=O)(N1CC1)N1CC1` [Example 284]: the IC50 is below 10 nM in test [1] and 1150 nM in test [2].
For `Cc1nc(-c2cccc(Oc3c([N+](=O)[O-])ccc4c3CCC4OP(=O)(N3CC3)N3CC3)c2)no1` (stereo not drawn) [Example 89], in that order: 10 to 50 nM and 6150 nM.
For the compound `CNC(=O)c1cc(Oc2c([N+](=O)[O-])ccc3c2CC[C@@H]3OP(=O)(N2CC2)N2CC2)ccc1F` [Example 260], the results for the IC50 in test [1] and in test [2] were below 10 nM and 734 nM, respectively.
For `CC(C)Oc1cc(Oc2c([N+](=O)[O-])ccc3c2CCC3OP(=O)(N2CC2)N2CC2)ccc1F` (stereo not drawn) [Example 487], in that order: below 10 nM and 1010 nM.
For the compound `O=[N+]([O-])c1ccc2c(c1Oc1cccc(-c3ccnn3CC(F)F)c1)CC[C@@H]2OP(=O)(N1CC1)N1CC1` [Example 367], the IC50 is below 10 nM in test [1] (Homo sapiens, NCI-H460, 72 h) and 321 nM in test [2].
As to `O=C1OCCN1c1ccc(Oc2cc3c(cc2[N+](=O)[O-])CCC3OP(=O)(N2CC2)N2CC2)cc1` (stereo not drawn) [Example 164], the IC50 was below 10 nM in test [1] (Homo sapiens, NCI-H460, 72 h) and 237 nM in test [2].
Turning to `O=C1c2cc(Oc3c([N+](=O)[O-])ccc4c3OCCC4OP(=O)(N3CC3)N3CC3)ccc2CN1C1CC1` (single isomer, unassigned) [Example 138], the IC50 in test [1] (Homo sapiens, NCI-H460, 72 h) was below 10 nM; in test [2] it was 579 nM.
On to `O=[N+]([O-])c1ccc2c(c1Oc1ccc(F)c(-n3cc(F)cn3)c1)CCC2OP(=O)(N1CC1)N1CC1` (racemic) [Example 418], for which the IC50 was below 10 nM in test [1] and 1210 nM in test [2].
As to `CC(OP(=O)(N1C[C@H]1C)N1C[C@H]1C)c1ccc([N+](=O)[O-])c(Oc2ccc(C(=O)N(C)C)cc2)c1` (stereo partly drawn) [Example 216], the IC50 is below 10 nM in test [1] and 3240 nM in test [2].
In the case of `Cc1cnc(-c2cccc(Oc3c([N+](=O)[O-])ccc4c3CC[C@@H]4OP(=O)(N3CC3)N3CC3)c2)o1` [Example 295, (S)-4-(3-(5-methyloxazol-2-yl)phenoxy)-5-nitro-2,3-dihydro-1H-inden-1-yl di(aziridin-1-yl)phosphinate], the IC50 in test [1] (Homo sapiens, NCI-H460, 72 h) is 10 to 50 nM; in test [2], 3620 nM.
As to `CC(OP(=O)(N1C[C@@H]1C)N1C[C@@H]1C)c1ccc([N+](=O)[O-])c(Oc2ccc(-c3ccc(F)cn3)c(F)c2)c1` (stereo partly drawn) [Example 221], the IC50 was below 10 nM in test [1] (Homo sapiens, NCI-H460, 72 h) and 1210 nM in test [2].
Take `CC(C)(C)c1cncc(Oc2c([N+](=O)[O-])ccc3c2CCC3OP(=O)(N2CC2)N2CC2)c1` (stereo not drawn) [Example 325]: the IC50 in test [1] is below 10 nM; in test [2], 608 nM.
Regarding `O=[N+]([O-])c1ccc2c(c1Oc1ccc(-c3ccncc3)cc1)CC[C@H]2OP(=O)(N1CC1)N1CC1` [Example 274], the IC50 is 10 to 50 nM in test [1] and 7430 nM in test [2].
Take `O=[N+]([O-])c1cc2c(cc1Oc1ccc(C3CC3)cc1)C(OP(=O)(N1CC1)N1CC1)CC2` (stereo not drawn) [Example 149]: the IC50 is below 10 nM in test [1] and 372 nM in test [2].
Consider `O=[N+]([O-])c1ccc2c(c1Oc1ccc(-c3ccccc3)nc1)CCC2OP(=O)(N1CC1)N1CC1` (stereo not drawn) [Example 51], for which the values for the IC50 in test [1] and in test [2] were below 10 nM and 327 nM, respectively.
As to `O=[N+]([O-])c1ccc2c(c1Oc1ccc(-c3ccccn3)c(F)c1)CCC2OP(=O)(N1CC1)N1CC1` (stereo not drawn) [Example 287], the IC50 was below 10 nM in test [1] and 1010 nM in test [2].
For `O=[N+]([O-])c1cc2c(cc1Oc1ccc(-c3ccc(F)cc3)cc1)C(OP(=O)(N1CC1)N1CC1)CC2` (stereo not drawn) [Example 145], in that order: below 10 nM and 1120 nM.
Regarding `Cc1nnc(-c2cccc(Oc3c([N+](=O)[O-])ccc4c3CC[C@@H]4OP(=O)(N3CC3)N3CC3)c2)s1` [Example 349], the IC50 in test [1] (Homo sapiens, NCI-H460, 72 h) was below 10 nM; in test [2] it was 498 nM.
For `O=[N+]([O-])c1ccc2c(c1Oc1cccc(-c3cccnc3)c1)CC[C@@H]2OP(=O)(N1CC1)N1CC1` [Example 310], in that order: below 10 nM and 2010 nM.
For `CC(C)COc1cccc(Oc2c([N+](=O)[O-])ccc3c2CCC3OP(=O)(N2CC2)N2CC2)c1` (stereo not drawn) [Example 484], the IC50 in test [1] was below 10 nM; in test [2], 1990 nM.
Turning to `O=[N+]([O-])c1ccc2c(c1Oc1ccc3c(c1)OC(F)(F)O3)CC[C@@H]2OP(=O)(N1CC1)N1CC1` [Example 385], the IC50 in test [1] (Homo sapiens, NCI-H460, 72 h) was below 10 nM; in test [2], 819 nM.
Turning to `Cc1nc(-c2cccc(Oc3c([N+](=O)[O-])ccc4c3CCC4OP(=O)(N3CC3)N3CC3)c2)no1` (stereo not drawn) [Example 88], the IC50 is 50 to 100 nM in test [1] and 3570 nM in test [2].
`Cn1cncc1-c1cccc(Oc2c([N+](=O)[O-])ccc3c2CC[C@@H]3OP(=O)(N2CC2)N2CC2)c1` [Example 350]: the IC50 in test [1] (Homo sapiens, NCI-H460, 72 h) is below 10 nM; in test [2], 1870 nM.
Regarding `Cc1cc2cc(Oc3c([N+](=O)[O-])ccc4c3CCC4OP(=O)(N3CC3)N3CC3)ccc2n1C` (stereo not drawn) [Example 387], the IC50 in test [1] (Homo sapiens, NCI-H460, 72 h) is below 10 nM; in test [2] it was 1860 nM.
On to `O=[N+]([O-])c1cc2c(cc1Oc1ccc(-c3ccccc3)nc1)[C@H](OP(=O)(N1CC1)N1CC1)CC2` [Example 528], for which the IC50 was below 10 nM in test [1] and 880 nM in test [2].
As for `O=[N+]([O-])c1cc2c(cc1Oc1ccc(-c3ccccc3)nc1)C(OP(=O)(N1CC1)N1CC1)CC2` (stereo not drawn) [Example 518], the IC50 in test [1] was below 10 nM; in test [2] it was 746 nM.
For the compound `O=[N+]([O-])c1ccc2c(c1Oc1ccc(-c3cccnc3)cc1)CC[C@H]2OP(=O)(N1CC1)N1CC1` [Example 272], the IC50 in test [1] was 10 to 50 nM; in test [2], 3120 nM.
In the case of `CC(OP(=O)(N1CC1)N1CC1)c1cc2cc(Oc3ccc4c(c3)OC(F)(F)O4)c([N+](=O)[O-])cc2o1` (stereo not drawn) [Example 546], the concentration for half-maximal inhibition (IC50) is below 10 nM in test [1] (Homo sapiens, NCI-H460, 72 h) and 4690 nM in test [2].
Take `O=C(NC1CCC1)c1ccc(Oc2cc3c(cc2[N+](=O)[O-])CCC3OP(=O)(N2CC2)N2CC2)cc1` (stereo not drawn) [Example 191]: the IC50 in test [1] is below 10 nM; in test [2] it was 661 nM.
As for `Cn1cc2ccc(Oc3c([N+](=O)[O-])ccc4c3CC[C@@H]4OP(=O)(N3CC3)N3CC3)cc2n1` [Example 399], the figures for the IC50 in test [1] and in test [2] were below 10 nM and 1110 nM, respectively.
On to `CN1CCc2ccc(Oc3cc4c(cc3[N+](=O)[O-])CCC4OP(=O)(N3CC3)N3CC3)cc2C1=O` (stereo not drawn) [Example 166], for which the IC50 in test [1] (Homo sapiens, NCI-H460, 72 h) was 10 to 50 nM; in test [2] it was 976 nM.
